# Entries after “also recorded” stand apart in the source; their conditions may differ. Read-outs that look alike come from different tables or passages of the source. Where a SMILES comes first, the peptide text is derived from it. Bridges are numbered along the chain shown (N, C = ends). [ ]: non-standard residue; d: D form. The star is where a group is joined. Hexanoyl(3R-OH,5-Me) = CC(C)C[C@@H](O)CC(=O)*; dNMeF = CN[C@H](Cc1ccccc1)C(=O)O; dOrn = NCCC[C@@H](N)C(=O)O
# Tests used:
# [1] = system: Staphylococcus aureus RN4220
# Procedure: ×105 colony forming units (CFU) , 21 g/L Müller Hinton Broth (Difco), 5 0 mg/L Ca2+ (adjusted with CaCl2• 2H2O), and 25 mg/L Mg 2+ (adjusted with MgCl 2•6H2O)]. […]
# (§1) Evaluation of antimicrobial spectra of peptides. The MIC assay was performed according to the Clinical and Laboratory Standards Institute protocols. The antimicrobial activities of the peptides were measured using the broth microdilution method.1 Serial dilutions of peptides were prepared in cation adjusted Müller Hinton Broth. Each dilution (100 µL) was dispensed to each well of the round-bottom plate to obtain final concentrations ranging from 64 µg/m L to 0.0075 µg/m L. Bacteria were grown at 37 °C overnight on Tryptic Soy Broth or Müller Hinton Broth agar plates. Bacterial inoculum was prepared by direct suspension of the colonies in 0.9% saline, and adjusted to obtain OD 625 0.08–0.13 using a spectrophotometer UV -1280 (Shimadzu). The resultant suspension was diluted with cation adjusted Müller Hinton Broth (1/20). The resultant mixture (10 µL) was inoculated to each well of the plates (approximately 5 ×10^4 CFU/well ), mixed, and incubated at 37 °C for 18 h. The MIC value was determined as the minimum concentration that inhibited growth of bacteria. To evaluate the antimicrobial activities of peptides in the presence of serum, 10% bovine calf serum in cation adjusted Müller Hinton Broth was used.
# S. aureus [2] = format: cell-based, Staphylococcus aureus; details: 18 h
# Procedure: (§2) Antimicrobial activity assay of bead-derived peptides. […]
# (§3) plate was added DMSO (1 µL/well). […]
# (§4) precipitation of the grown cells was examined.
# (§5) Evaluation of antimicrobial spectra of peptides. The MIC assay was performed according to the Clinical and Laboratory Standards Institute protocols. The antimicrobial activities of the peptides were measured […]
# (§6) Soy Broth or Müller Hinton Broth agar plates. Bacterial inoculum was prepared by direct suspension of the […]
# (§7) and incubated at 37 °C for 18 h. […]
# (§8) inhibited growth of bacteria.
# MRSA4 = format: cell-based, Staphylococcus aureus; details: 18 h
# Procedure: as §2, §3, §4, §5, §6, §7, §8
# [3] = system: Staphylococcus aureus Smith ATCC 13709; format: cell-based
# Procedure: as §2, §3, §4, §5, §6, §7, §8
# MRSA = system: MRSA; parameters: method as in PMID 25485686; details: cited from earlier work
# From the text: (§9) Lysocin E (1, Fig. 1a) was isolated from Lysobacter sp. as a new antibiotic and structurally determined to be a 37-membered depsipeptide (molecular weight = 1618 Da) with an N-methylated amide and ester linkages. The macrocyclic core of 12 residues contains four different non-proteinogenic D-amino acids (D-Arg-2/7, N-Me-D-Phe-5, D-Gln-9, D-Trp-10) and is appended with (R)-3-hydroxy-5-methylhexanamide.
# [4] = system: S. aureus Smith ATCC 13709; test: Antimicrobial activity assay of bead-derived peptides (one-bead, microscale); format: cell-based, Staphylococcus aureus; parameters: key to antimicrobial activity: ++: inhibition; +: partial inhibition; -: no inhibition; details: for antimicrobial activity: 85% of one-bead-derived crude peptide, 40 μL Mueller Hinton Broth with 10% calf serum, 37 °C, 18 h
# Procedure: Finally, a microscale antimicrobial assay was developed to evaluate the activity of 1 in solution phase.
# Antimicrobial activity assay of bead-derived peptides. To the crude peptides in the 96-well round-bottom plate was added DMSO (1 µL/well). To the solution of peptides in each well was added a suspension of S. aureus Smith ATCC 13709 strain in 10% calf serum containing cation adjusted Müller Hinton Broth [40 µL, 2 ×10^5 colony forming units (CFU) , 21 g/L Müller Hinton Broth (Difco), 5 0 mg/L Ca2+ (adjusted with CaCl2• 2H2O), and 25 mg/L Mg 2+ (adjusted with MgCl 2•6H2O)]. The plate was incubated at 37 °C for 18 h, and the precipitation of the grown cells was examined. […]
# [5] = system: Staphylococcus aureus MSSA1; details: for antimicrobial activity relative to parent 1: 10% BCS
# Procedure: as §1
# S. aureus [6] = system: S. aureus; parameters: method as in PMID 25485686; details: S. aureus-infected mice; cited from earlier work
# From the text: as §9, with “(R)-3-hydroxy-5-methylhexanamide. […] Screening of the additives ind ...” for “(R)-3-hydroxy-5-methylhexanamide.”
# [7] = parameters: method as in our previous studies; details: ref our previous studies, cited from earlier work
# From the text: as §9
# [8] = system: Listeria monocytogenes 10403S; format: cell-based; details: 18 h
# Procedure: as §2, §3, §4, §5, §6, §7, §8
# Bacillus cereus JCM20037 = format: cell-based; details: JCM20037, 18 h
# Procedure: as §2, §3, §4, §5, §6, §7, §8
# [9] = system: Bacillus subtilis JCM2499; format: cell-based; details: JCM2499, 18 h
# Procedure: as §2, §3, §4, §5, §6, §7, §8
compound,measurement,setting,value
"CC[C@H](C)[C@@H]1NC(=O)[C@@H](Cc2c[nH]c3ccccc23)NC(=O)[C@@H](CCC(N)=O)NC(=O)[C@H](CCC(=O)O)NC(=O)[C@@H](CCCNC(=N)N)NC(=O)[C@H](CC(C)C)NC(=O)[C@@H](Cc2ccccc2)N(C)C(=O)CNC(=O)[C@H](CO)NC(=O)[C@@H](CCCNC(=N)N)NC(=O)[C@@H](NC(=O)C[C@H](O)CC(C)C)[C@@H](C)OC(=O)[C@H]([C@@H](C)O)NC1=O [Peptide 1, Lysocin E] ({Hexanoyl(3R-OH,5-Me)}-T[dR]SG[dNMeF]L[dR]E[dQ][dW]IT; ester 1-C)",MIC,[1]; 10% BCS (+),0.125 µg/mL
same,MIC,[1]; BCS free,4.0 µg/mL
same,original MIC value against S. aureus,S. aureus [2],2 to 4 µg/mL
same,MIC,MRSA4,0.25 µg/mL
same,decrease of MIC by adding 10% BCS,[3],64 fold
same,MIC,[3]; 10% BCS (+),0.0625 µg/mL
same,MIC,"[3]; ATCC 13709, 18 h",2.0 µg/mL
same,minimum inhibitory concentration (MIC) against MRSA,MRSA,4 µg/mL
same,growth inhibition of S. aureus Smith ATCC 13709,"[4]; 10% BCS-doped Mueller Hinton Broth (40 μL), natural 1 0.04 μg per well or 85% of single bead-derived 1 (0.21 μg), duplicate",Complete growth inhibition; also recorded: completely inhibit the growth
same,antimicrobial activity,[4],++
same,MIC,[5]; 10% BCS (+),0.0625 µg/mL
same,MIC,[5]; BCS free,2.0 µg/mL
same,ED50,S. aureus [6],0.5 mg/kg
same,Kd,"[7]; 1:1 complex with MK-4, in vitro",4.5 µM
same,affinity toward ubiquinone-10,[7]; in vitro,no affinity
"CC[C@H](C)[C@@H]1NC(=O)[C@@H](Cc2c[nH]c3ccccc23)NC(=O)[C@@H](CCC(N)=O)NC(=O)[C@H](CCC(=O)O)NC(=O)[C@@H](CCCNC(=N)N)NC(=O)[C@H](CC(C)C)NC(=O)[C@@H](Cc2ccccc2)N(C)C(=O)CNC(=O)[C@H](C)NC(=O)[C@@H](CCCNC(=N)N)NC(=O)[C@@H](NC(=O)C[C@H](O)CC(C)C)[C@@H](C)OC(=O)[C@H]([C@@H](C)O)NC1=O [Peptide A1] ({Hexanoyl(3R-OH,5-Me)}-T[dR]AG[dNMeF]L[dR]E[dQ][dW]IT; ester 1-C)",MIC,MRSA4,0.25 µg/mL
same,antimicrobial activity,[4],+
same,antimicrobial activity relative to parent 1,[5],4 fold
"CC[C@H](C)[C@@H]1NC(=O)[C@@H](Cc2c[nH]c3ccccc23)NC(=O)[C@@H](C(C)C)NC(=O)[C@H](CCC(=O)O)NC(=O)[C@@H](CCCNC(=N)N)NC(=O)[C@H](CC(C)C)NC(=O)[C@@H](Cc2ccccc2)N(C)C(=O)CNC(=O)[C@H](C)NC(=O)[C@@H](CCCNC(=N)N)NC(=O)[C@@H](NC(=O)C[C@H](O)CC(C)C)[C@@H](C)OC(=O)[C@H]([C@@H](C)O)NC1=O [Peptide A2] ({Hexanoyl(3R-OH,5-Me)}-T[dR]AG[dNMeF]L[dR]E[dV][dW]IT; ester 1-C)",MIC,MRSA4,0.25 µg/mL
same,antimicrobial activity,[4],++
same,antimicrobial activity relative to parent 1,[5],4 fold
"CC[C@H](C)[C@@H]1NC(=O)[C@@H](Cc2c[nH]c3ccccc23)NC(=O)[C@@H](C(C)C)NC(=O)[C@H](CCC(=O)O)NC(=O)[C@@H](CCCNC(=N)N)NC(=O)[C@H](CC(C)C)NC(=O)[C@@H](Cc2ccccc2)N(C)C(=O)CNC(=O)[C@H](CCCCN)NC(=O)[C@@H](CCCNC(=N)N)NC(=O)[C@@H](NC(=O)C[C@H](O)CC(C)C)[C@@H](C)OC(=O)[C@H]([C@@H](C)O)NC1=O [Peptide A3] ({Hexanoyl(3R-OH,5-Me)}-T[dR]KG[dNMeF]L[dR]E[dV][dW]IT; ester 1-C)",MIC,MRSA4,0.125 µg/mL
same,antimicrobial activity,[4]; listed as KLVI,++ and +
same,antimicrobial activity relative to parent 1,[5],4 fold
"CC[C@H](C)[C@@H]1NC(=O)[C@@H](Cc2c[nH]c3ccccc23)NC(=O)[C@@H](CCCN)NC(=O)[C@H](CCC(=O)O)NC(=O)[C@@H](CCCNC(=N)N)NC(=O)[C@H](CC(C)C)NC(=O)[C@@H](Cc2ccccc2)N(C)C(=O)CNC(=O)[C@H](Cc2ccc(O)cc2)NC(=O)[C@@H](CCCNC(=N)N)NC(=O)[C@@H](NC(=O)C[C@H](O)CC(C)C)[C@@H](C)OC(=O)[C@H]([C@@H](C)O)NC1=O [Peptide A7] ({Hexanoyl(3R-OH,5-Me)}-T[dR]YG[dNMeF]L[dR]E[dOrn][dW]IT; ester 1-C)",antimicrobial activity,[4]; listed as YLOI,+ and ++
"CC[C@H](C)[C@@H]1NC(=O)[C@@H](Cc2c[nH]c3ccccc23)NC(=O)[C@@H](CCCN)NC(=O)[C@H](CCC(=O)O)NC(=O)[C@@H](CCCNC(=N)N)NC(=O)[C@H](CC(C)C)NC(=O)[C@@H](Cc2ccccc2)N(C)C(=O)CNC(=O)[C@H](CC(N)=O)NC(=O)[C@@H](CCCNC(=N)N)NC(=O)[C@@H](NC(=O)C[C@H](O)CC(C)C)[C@@H](C)OC(=O)[C@H]([C@@H](C)O)NC1=O [Peptide A14] ({Hexanoyl(3R-OH,5-Me)}-T[dR]NG[dNMeF]L[dR]E[dOrn][dW]IT; ester 1-C)",antimicrobial activity,[4],+
"CC(C)C[C@@H](O)CC(=O)N[C@@H]1C(=O)N[C@H](CCCNC(=N)N)C(=O)N[C@@H](C)C(=O)NCC(=O)N(C)[C@H](Cc2ccccc2)C(=O)N[C@@H](CC(C)C)C(=O)N[C@H](CCCNC(=N)N)C(=O)N[C@@H](CCC(=O)O)C(=O)N[C@H](Cc2ccc(O)cc2)C(=O)N[C@H](Cc2c[nH]c3ccccc23)C(=O)N[C@@H](Cc2ccc(O)cc2)C(=O)N[C@@H]([C@@H](C)O)C(=O)O[C@@H]1C [Peptide A15] ({Hexanoyl(3R-OH,5-Me)}-T[dR]AG[dNMeF]L[dR]E[dY][dW]YT; ester 1-C)",MIC,[8],64 µg/mL
same,antimicrobial activity,[4],+
"CC[C@H](C)[C@@H]1NC(=O)[C@@H](Cc2c[nH]c3ccccc23)NC(=O)[C@@H](CCCN)NC(=O)[C@H](CCC(=O)O)NC(=O)[C@@H](CCCNC(=N)N)NC(=O)[C@H](CC(C)C)NC(=O)[C@@H](Cc2ccccc2)N(C)C(=O)CNC(=O)[C@H](CC(=O)O)NC(=O)[C@@H](CCCNC(=N)N)NC(=O)[C@@H](NC(=O)C[C@H](O)CC(C)C)[C@@H](C)OC(=O)[C@H]([C@@H](C)O)NC1=O [Peptide A16] ({Hexanoyl(3R-OH,5-Me)}-T[dR]DG[dNMeF]L[dR]E[dOrn][dW]IT; ester 1-C)",antimicrobial activity,[4],+
"CC[C@H](C)[C@@H]1NC(=O)[C@@H](Cc2c[nH]c3ccccc23)NC(=O)[C@@H](Cc2ccc(O)cc2)NC(=O)[C@H](CCC(=O)O)NC(=O)[C@@H](CCCNC(=N)N)NC(=O)[C@H](CC(C)C)NC(=O)[C@@H](Cc2ccccc2)N(C)C(=O)CNC(=O)[C@H](CC(=O)O)NC(=O)[C@@H](CCCNC(=N)N)NC(=O)[C@@H](NC(=O)C[C@H](O)CC(C)C)[C@@H](C)OC(=O)[C@H]([C@@H](C)O)NC1=O [Peptide A17] ({Hexanoyl(3R-OH,5-Me)}-T[dR]DG[dNMeF]L[dR]E[dY][dW]IT; ester 1-C)",MIC,Bacillus cereus JCM20037,16 µg/mL
same,MIC,[9],16 µg/mL
same,antimicrobial activity,[4],+

# — paper PMC6611794, “Development of a high-throughput strategy for discovery of potent analogues of antibiotic lysocin E” (Nature Communications, 2019)
